The record followed here is the supplement of paper PMC11061612.

Assay in all cases: Bliss excess, mean over the matrix (fraction); higher = more synergy
In assay [1] the test system is RPMI-6666 (Non-Cancerous). The procedure, abridged:
(§1)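 Bliss excess equals the observed combination effect minus the expected value EA + EB − EA·EB, where EA and EB are the effects of each agent alone. Combination Emax is the second-highest inhibition within the matrix. Inhibition was scaled from CellTiter-Glo 2.0 luminescence, with 0 set by vehicle wells and 1 by blank wells, after 72 hours of two-drug dosing of cells plated in 1536-well plates.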

Assay [2] relates to 8305C (Thyroid Gland Carcinoma). The procedure, abridged: as §1
Assay [3] relates to SW1116 (Colorectal Carcinoma). An outline of the steps:
as §1

The subject of another assay is SH-4 (Melanoma). The procedure, abridged:
as §1

Assay [4] concerns LU-139 (Small Cell Lung Carcinoma). The procedure, abridged: as §1
The test system of assay [5] is RKO (Colorectal Carcinoma). An outline of the steps:
as §1

The subject of assay [6] is Hs-633T (Other Solid Carcinomas). The procedure, abridged: as §1
Assay [7] deals with LoVo (Colorectal Carcinoma). An outline of the steps:
as §1

For assay [8], the system named is SW1271 (Small Cell Lung Carcinoma). The procedure, abridged: as §1
A further assay relates to HMV-II (Melanoma). An outline of the steps:
as §1

A further assay deals with NB14 (Neuroblastoma). An outline of the steps:
as §1

The subject of assay [9] is SK-OV-3 (Ovarian Carcinoma). An outline of the steps:
as §1

Assay [10] has as its system SUP-T1 (T-Lymphoblastic Leukemia). An outline of the steps: as §1
A further assay deals with Mewo (Melanoma). An outline of the steps:
as §1

Assay [11] deals with HARA (Squamous Cell Lung Carcinoma). An outline of the steps:
as §1

A further assay has as its system NCI-H2795 (Mesothelioma). The procedure, abridged:
as §1

The subject of assay [12] is PCI-30 (Head and Neck Carcinoma). The procedure, abridged: as §1
The subject of assay [13] is HO-1-u-1 (Oral Cavity Carcinoma). An outline of the steps:
as §1

Assay [14] has as its system CAL-54 (Kidney Carcinoma). The procedure, abridged: as §1
Another assay has as its system NCI-H28 (Mesothelioma). The procedure, abridged: as §1

SMILES strings stand for the structures.

Turning to `Cc1cc2ncnn2cc1Nc1ncc2c(n1)n(C1CCOCC1)c(=O)n2C` [AZD7648] + COc1cc([C@@H]2c3cc4c(cc3[C@@H](O[C@@H]3O[C@@H]5CO[C@@H](C)O[C@H]5[C@H](O)[C@H]3O)[C@H]3COC(=O)[C@H]23)OCO4)cc(OC)c1O [Etoposide] (first compound max 10 µM, 7x7, partner max 10 µM), the Bliss excess in assay [1] was 0.0224; in assay [2], -0.0413; in assay [3], -0.0028; in the assay with SH-4 (Melanoma) it was 0.0744; in [4], 0.101; in assay [5], 0.135. For the same compound, the Bliss excess was 0.174 in assay [6]; 0.0689 in [7]; 0.0441 in assay [8]; 0.0864 in the assay on HMV-II (Melanoma); 0.0704 in the assay with NB14 (Neuroblastoma); -0.0497 in assay [9]. For the same compound, the Bliss excess in assay [10] was 0.07; in the assay on Mewo (Melanoma), 0.0524; in assay [11], 0.105; in the assay with NCI-H2795 (Mesothelioma) it was -0.0093; in assay [12], 0.0768; in [13] it was 0.11. Moreover, the results for the Bliss excess (in assay [14]; in the assay with NCI-H28 (Mesothelioma)) were 0.0605 and 0.0548, respectively.

Take `CN(CCO)CC[C@H](CSc1ccccc1)Nc1ccc(S(=O)(=O)NC(=O)c2ccc(N3CCC([C@@H](O)c4ccccc4-c4ccc(Cl)cc4)CC3)cc2)cc1S(=O)(=O)C(F)(F)F` [AZD4320] + Nc1ccn([C@@H]2O[C@H](CO)[C@@H](O)C2(F)F)c(=O)n1 [Gemcitabine] (first compound max 1 µM, 7x7, partner max 0.3 µM): the Bliss excess was -0.0051 in assay [1]; 0.072 in assay [2]; -0.0292 in assay [3]; 0.0224 with SH-4 (Melanoma); 0.0388 in assay [4]; -0.0195 in [5]. In addition, the Bliss excess is 0.0434 in [6]; -0.0476 in assay [7]; 0.0692 in assay [8]; -0.0109 in the assay with HMV-II (Melanoma); 0.0314 in the assay on NB14 (Neuroblastoma); -0.0695 in [9]. Besides, the Bliss excess in assay [10] is 0.0225; with Mewo (Melanoma) it was 0.0099; in assay [11], -0.0498; in the assay with NCI-H2795 (Mesothelioma), -0.0094; in [12], -0.0272; in [13], 0.0383. In addition, the Bliss excess was -0.0034 in assay [14] and 0.0018 in the assay on NCI-H28 (Mesothelioma).

`N#Cc1cnc(Nc2cc(NC[C@H]3CNCCO3)c(C(F)(F)F)cn2)cn1` [SRA737] + O=c1[nH]cc(F)c(=O)[nH]1 [5-Fluorouracil] (first compound max 10 µM, 7x7, partner max 20 µM): the Bliss excess is -0.003 in assay [1]; -0.0326 in assay [2]; -0.033 in assay [3]; -0.0344 in the assay on SH-4 (Melanoma); 0.0169 in assay [4]; 0.0048 in [5]. Further, the Bliss excess was -0.0246 in [6]; 0.0238 in assay [7]; -0.0472 in assay [8]; -0.0542 in the assay with HMV-II (Melanoma); 0.0321 in the assay with NB14 (Neuroblastoma); -0.0597 in [9]. Further, the Bliss excess in [10] is 0.0112; in the assay on Mewo (Melanoma), -0.0136; in assay [11], -0.0379; in the assay on NCI-H2795 (Mesothelioma), 0.0744; in assay [12], 0.0058; in assay [13], -0.0774. Further, the Bliss excess in [14] is -0.0373; in the assay on NCI-H28 (Mesothelioma), -0.0043.

`C[C@@H](Oc1cc(-c2cnn(C3CCNCC3)c2)cnc1N)c1c(Cl)ccc(F)c1Cl` [Crizotinib] + CC1=C(C(=CC=C1)Cl)NC(=O)C2=CN=C(S2)NC3=CC(=NC(=N3)C)N4CCN(CC4)CCO [Dasatinib] (first compound max 10 µM, 7x7, partner max 2 µM): the Bliss excess in assay [1] is 0.0471; in assay [2] it was 0.0122; in assay [3], 0.0159; with SH-4 (Melanoma), -0.0674; in assay [4] it was -0.0489; in assay [5] it was 0.0106. Moreover, the Bliss excess was 0.0646 in assay [6]; -0.121 in [7]; 0.0464 in assay [8]; -0.104 in the assay on HMV-II (Melanoma); -0.0123 in the assay with NB14 (Neuroblastoma); 0.0301 in [9]. Besides, the Bliss excess in assay [10] was -0.009; with Mewo (Melanoma) it was -0.0156; in assay [11], 0.0526; in the assay on NCI-H2795 (Mesothelioma), 0.0277; in assay [12], 0.0685; in [13], -0.0488. Besides, the Bliss excess in assay [14] was -0.033; with NCI-H28 (Mesothelioma) it was 0.0073.
